Laboratory results reported in US20240261268A1, “METHODS OF SLOWING AN INCREASE IN BRAIN VENTRICULAR VOLUME” (VANDA PHARMACEUTICALS INC., priority 2022, published 2024).

Assays:
[1] = other S1P receptor modulators, given for comparison; cited from earlier work
[2] = test system: adult subjects with relapsing MS; test: Phase III study: premature treatment discontinuation and deaths; assay type: in vivo; settings: ponesimod 20 mg, teriflunomide 14 mg
Protocol: A total of 1468 subjects were screened. Of those, 1133 subjects were randomized (567 to ponesimod 20 mg and 566 to teriflunomide 14 mg) across 162 sites in 28 countries, and 1131 subjects received at least one dose of study drug. The disposition of subjects is summarized in Table 1 and a summary of reasons (primary reason) for treatment discontinuation are shown in Table 2. Overall treatment and study discontinuation were balanced across both treatment arms. A total of 6.5% and 2.5% of the subjects discontinued due to AEs or tolerability related reasons in ponesimod 20 mg and teriflunomide 14 mg, respectively, while 1.9% and 4.3% discontinued due to efficacy related reasons. There were 2 deaths reported during the study—both on teriflunomide 14 mg.

[3] = test system: adult subjects with relapsing MS; test: 12-lead ECG heart rate and first-dose monitoring on Day 1; assay type: in vivo, human
Protocol: The incidence of treatment-emergent heart rate and rhythm (including hypotension) AESIs on Day 1 was higher in the ponesimod 20 mg arm (2.1%) than in the teriflunomide 14 mg arm (0.4%). However, the overall incidence of first dose AESI on Day 1 was low (2.1%) in ponesimod. None of these events were serious nor led to permanent discontinuation of study treatment. Discharge criteria at 4 hours post-dose were met for ca. 99% of subjects. […] ECG HR effect: nadir at 2 hours post-dose (siponimod—3-4 hours, fingolimod—around by 6 hours). Low incidence of low HR outliers (post-dose HR≤40 bpm), all 3 of them with a pre-treatment HR of <55 bpm, which is a known risk factor for post-dose bradycardia with SIP receptor modulators.
The mean heart rate reduction compared to pre-dose reached a maximum for ponesimod 20 mg at 2-hours post dose, −8.7 bpm compared to −1.7 bpm for teriflunomide 14 mg (FIG. 2).

[4] = test system: adult subjects with relapsing MS; test: MRI-based scaled brain ventricular volume (lateral + 3rd ventricle / ICV); assay type: in vivo, human; settings: p<0.001 vs baseline, ponesimod n=428, teriflunomide n=427
From the text: Efficacy variable/timepoint: The endpoint was increase in ventricular volume up to the end of study (EOS). All available data up to EOS, regardless of treatment discontinuation was included (ITT approach).
Ventricular Volume (VV) data were obtained from MRI images from patients that participated in the OPTIMUM study. Data were obtained from those patients who had MRI imagines at baseline week 60 and week 108. One pre-requisite was to select only those patients who had all images completed.
Ventricular volume was estimated from MRI images collected at baseline (BL), week 60 and week 108 for 428 subjects treated with ponesimod and 427 with teriflunomide. Lesions were identified using T2-weighted and Proton Density (PD) MRIs. Ventricles were segmented using lesion-filled T1 images using with the longitudinal stream in FreeSurfer 7. For each subject, scaled ventricular volume (V) was computed as the sum of lateral and 3rd ventricle volumes divided by the intracranial volume (ICV) and expressed as a percentage. Average V (V) and average change in V (ΔV) from baseline at weeks 60 and 108 were compared across treatment arms. Ventricular volumes were correlated with Multiple Sclerosis Functional Composite (MSFC), Paced Auditory Serial Addition Test (PASAT), Average Timed 25 Foot Walk (T25FW), Average 9-Hole Peg Test (9-HPT), Single Digit Modality Test (SDMT), FSIQ-RMS and Expanded Disability Score (EDSS).

[5] = test system: adult subjects with relapsing MS; test: Phase III study ponesimod 20 mg vs teriflunomide 14 mg: treatment-emergent adverse events (Safety Set)
Protocol: A prospective, multicenter, randomized, double-blind, active controlled, parallel-group, phase III, superiority study was conducted.
The treatment period consisted of an up-titration period (from Day 1 to 14) and a maintenance period (Day 15 until EOT).
To reduce the first-dose effect of ponesimod, an up-titration scheme was implemented from Day 1 to Day 14: • Days 1 and 2; 2 mg. • Days 3 and 4; 3 mg. • Days 5 and 6; 4 mg. • Day 7; 5 mg. • Day 8; 6 mg. • Day 9; 7 mg. • Day 10; 8 mg. • Day 11; 9 mg. • Days 12, 13, and 14; 10 mg. • Day 15 until EOT; 20 mg.
The Safety Set (SAF) included all randomized subjects who received at least one dose of study treatment. Subjects were analyzed based on actual treatment taken, not randomized treatment.

[6] = Day 1, ponesimod N=565, teriflunomide N=566, Safety Set
[7] = ponesimod 20 mg N=565, teriflunomide 14 mg N=566, Safety Set
[8] = ponesimod 20 mg, teriflunomide 14 mg
[9] = treatment-emergent, ponesimod 20 mg N=565, teriflunomide 14 mg N=566, Safety Set

CCCCCCCCc1ccc(CCC(N)(CO)CO)cc1 [fingolimod]
ECG HR effect: time of nadir post-dose [1]: ~6 h

CCc1cc(/C(C)=N/OCc2ccc(C3CCCCC3)c(C(F)(F)F)c2)ccc1CN1CC(C(=O)O)C1 [siponimod]
ECG HR effect: time of nadir post-dose [1]: 3 to 4 h

C/C(O)=C(\C#N)C(=O)Nc1ccc(C(F)(F)F)cc1 [teriflunomide, reference compound]
Subjects discontinued due to AEs or tolerability related reasons [2]: 2.5%
Mean heart rate reduction compared to pre-dose (maximum) ([3]; Day 1, 2 hours post dose, 12-lead ECG): −1.7 bpm
Subjects with asymptomatic post-dose HR≤40 bpm ([3]; Day 1, all had pre-treatment HR <55 bpm): none
Average change in scaled ventricular volume from baseline (Δ60V), percentage of ICV ([4]; week 60): 0.065%
Average change in scaled ventricular volume from baseline (Δ108V), percentage of ICV ([4]; week 108): 0.124%
Incidence of treatment-emergent heart rate and rhythm (including hypotension) AESIs on Day 1 ([5]; Day 1, ponesimod 20 mg arm, teriflunomide 14 mg arm): 0.4%
AESI effect on heart rate and rhythm (including hypotension) on Day 1: Subjects with at least one AE [5, 6]: 2(0.4) n (%)
AESI heart rate and rhythm on Day 1, PT: Atrioventricular block first degree [5, 6]: 0 n (%)
AESI heart rate and rhythm on Day 1, PT: Bradycardia [5, 6]: 0 n (%)
AESI heart rate and rhythm on Day 1, PT: Bundle branch block left [5, 6]: 0 n (%)
AESI heart rate and rhythm on Day 1, PT: Bundle branch block right [5, 6]: 0 n (%)
AESI heart rate and rhythm on Day 1, PT: Defect conduction intraventricular [5, 6]: 0 n (%)
AESI heart rate and rhythm on Day 1, PT: Electrocardiogram QT prolonged [5, 6]: 1(0.2) n (%)
AESI heart rate and rhythm on Day 1, PT: Presyncope [5, 6]: 1(0.2) n (%)
AESI heart rate and rhythm on Day 1, PT: Sinus arrhythmia [5, 6]: 0 n (%)
AESI heart rate and rhythm on Day 1, PT: Sinus bradycardia [5, 6]: 0 n (%)
Treatment-emergent AESI: Infection ([5]; only if serious or severe, ponesimod 20 mg N=565, teriflunomide 14 mg N=566, Safety Set): 5(0.9) n (%)
TEAEs leading to premature discontinuation of study drug: Subjects with at least one AE [5, 7]: 34(6.0) n (%)
TEAEs leading to premature discontinuation, SOC: Blood and lymphatic system disorders [5, 7]: 2(0.4) n (%)
TEAEs leading to premature discontinuation, SOC: Cardiac disorders [5, 7]: 2(0.4) n (%)
TEAEs leading to premature discontinuation, SOC: Eye disorders [5, 7]: 0 n (%)
TEAEs leading to premature discontinuation, SOC: Gastrointestinal disorders [5, 7]: 4(0.7) n (%)
TEAEs leading to premature discontinuation, SOC: General disorders and administration site conditions [5, 7]: 2(0.4) n (%)
TEAEs leading to premature discontinuation, SOC: Hepatobiliary disorders [5, 7]: 2(0.4) n (%)
TEAEs leading to premature discontinuation, SOC: Investigations [5, 7]: 10(1.8) n (%)
TEAEs leading to premature discontinuation, SOC: Musculoskeletal and connective tissue disorders [5, 7]: 1(0.2) n (%)
TEAEs leading to premature discontinuation, SOC: Neoplasms benign, malignant and unspecified (incl cysts and polyps) [5, 7]: 1(0.2) n (%)
TEAEs leading to premature discontinuation, SOC: Nervous system disorders [5, 7]: 4(0.7) n (%)
TEAEs leading to premature discontinuation, SOC: Pregnancy, puerperium and perinatal conditions [5, 7]: 3(0.5) n (%)
TEAEs leading to premature discontinuation, SOC: Psychiatric disorders [5, 7]: 1(0.2) n (%)
TEAEs leading to premature discontinuation, SOC: Reproductive system and breast disorders [5, 7]: 1(0.2) n (%)
TEAEs leading to premature discontinuation, SOC: Respiratory, thoracic and mediastinal disorders [5, 7]: 0 n (%)
TEAEs leading to premature discontinuation, SOC: Skin and subcutaneous tissue disorders [5, 7]: 2(0.4) n (%)
TEAEs leading to premature discontinuation, SOC: Social circumstances [5, 7]: 1(0.2) n (%)
TEAEs leading to premature discontinuation, SOC: Surgical and medical procedures [5, 7]: 1(0.2) n (%)
TEAEs leading to premature discontinuation, SOC: Vascular disorders [5, 7]: 0 n (%)
Treatment-emergent AESI: Effect on heart rate and rhythm (including hypotension) [5, 7]: 24(4.2) n (%)
Treatment-emergent AESI: Hepatobiliary disorders/Liver enzyme abnormality [5, 7]: 82(14.5) n (%)
Treatment-emergent AESI: Herpetic infection [5, 7]: 27(4.8) n (%)
Treatment-emergent AESI: Hypertension [5, 7]: 51(9.0) n (%)
Treatment-emergent AESI: Macular edema [5, 7]: 1(0.2) n (%)
Treatment-emergent AESI: Non-skin malignancy [5, 7]: 1(0.2) n (%)
Treatment-emergent AESI: Pulmonary events [5, 7]: 15(2.7) n (%)
Treatment-emergent AESI: Seizure [5, 7]: 1(0.2) n (%)
Treatment-emergent AESI: Skin malignancy [5, 7]: 1(0.2) n (%)
AESI category hepatobiliary disorders/liver enzyme abnormality [5, 8]: 14.5%
AESI category hypertension [5, 8]: 9.0%
AESI category pulmonary events [5, 8]: 2.7%
Proportion of subjects who experienced at least one SAE [5, 8]: 8.1%
Proportion of subjects who experienced at least one TEAE [5, 8]: 88.2%
TEAE: ALT increased [5, 8]: 9.4%
TEAE: headache [5, 8]: 12.7%
TEAE: nasopharyngitis [5, 8]: 16.8%
TEAE: upper respiratory tract infection [5, 8]: 10.4%
TEAEs leading to premature treatment discontinuation [5, 8]: 6.0%
Subjects with at least one AE [5, 9]: 499(88.2) n (%)
Subjects with at least one AE leading to study drug discontinuation [5, 9]: 34(6.0) n (%)
Subjects with at least one Drug-Related AE [5, 9]: 238(42.0) n (%)
Subjects with at least one Fatal AE [5, 9]: 2(0.4) n (%)
Subjects with at least one Serious AE [5, 9]: 46(8.1) n (%)
Subjects with at least one Severe AE [5, 9]: 26(4.6) n (%)
